Experimental data published in patent publication US12601718B2, “Method for pretreating ranitidine hydrochloride sample” (Hunan Institute for Drug Inspection and Testing, priority 2022, dated 2026).

Key:
[1] = NDMA carcinogenicity / acceptable intake from CPDB toxicological data (TD50 linear extrapolation, rodent carcinogenicity data); type: in vivo; conditions: 0.0959 μg÷300 mg
Protocol: According to the toxicological data in the FDA according to the Carcinogenic Potency Database (CPDB database), the NDMA acceptable daily intake is set at about 0.096 μg. On Sep. 13, 2019, the FDA released a safety warning that some Ranitidine-based drugs (including the brand-name drug Zantac) contain the impurity of N-nitrosodimethylamine (NDMA). Subsequently, China launched special inspections and testing on NDMA for this variety.

[2] = cited from earlier work
[3] = cited from earlier work; remark: listed apart in the source

SMILES	limit value of the impurity NDMA in Ranitidine hydrochloride capsules [1]	solubility in dichloromethane [2]	solubility in water [2]	NDMA acceptable daily intake ([3]; FDA, according to CPDB database)	carcinogen class ([3]; in vivo)
CN(C)N=O [NDMA, N-nitrosodimethylamine]	≈ 320 ng/g	almost insoluble	readily soluble	about 0.096 μg	class-2A carcinogen
CNC(=C[N+](=O)[O-])NCCSCc1ccc(CN(C)C)o1 [Ranitidine]		almost insoluble	readily soluble		
